Key:
CFTR [1] = biological target: T1, CFTR (Homo sapiens, UniProt P13569); assay: Membrane Potential Dye, Enteroid Assay A; assay type: cell-based; conditions: for EC50: read-out: Ent. A EC50
Description: Base medium (ADF+++) consisted of Advanced […], 2 mM Glutamax, 10 mM HEPES, 1 μg/mL penicillin/streptomycin.
Intestinal enteroid maintenance medium (IEMMN) consisted of ADF+++, 1× B27 supplement, 1× N2 supplement, 1.25 mM N-acetyl cysteine, 10 mM Nicotinamide, 50 ng/mL hEGF, 10 nM Gastrin, 1 μg/mL hR-spondin-1, 100 ng/mL hNoggin, TGF-b type 1 inhibitor A-83-01, 100 μg/mL Primocin, 10 μM P38 MAPK inhibitor SB202190.
Bath 1 Buffer consisted of 1 mM MgCl2, 160 mM NaCl, 4.5 mM KCl, 10 mM HEPES, 10 mM Glucose, 2 mM CaCl2).
Chloride Free Buffer consisted of 1 mM Magnesium Gluconate, 2 mM Calcium Gluconate, 4.5 mM Potassium Gluconate, 160 mM Sodium Gluconate, 10 mM HEPES, 10 mM Glucose.
Bath 1 Dye Solution consisted of Bath 1 Buffer, 0.04% Pluronic F127, 20 μM Methyl Oxonol, 30 μM CaCCinh-A01, 30 μM Chicago Sky Blue.
Chloride Free Dye Solution consisted of Chloride Free Buffer, 0.04% Pluronic F127, 20 μM Methyl Oxonol, 30 μM CaCCinh-A01, 30 μM Chicago Sky Blue.
Chloride Free Dye Stimulation Solution consisted of Chloride Free Dye Solution, 10 μM forskolin, 100 μM IBMX, and 300 nM Compound III.
Human intestinal epithelial enteroid cells were obtained from the Hubrecht Institute for Developmental Biology and Stem Cell Research, Utrecht, The Netherlands and expanded in T-Flasks as previously described (Dekkers J F, Wiegerinck C L, de Jonge H R, Bronsveld I, Janssens H M, de Winter-de Groot K M, Brandsma A M, de Jong N W M, Bijvelds M J C, Scholte B J, Nieuwenhuis E E S, van den Brink S, Clevers H, van der Ent C K, Middendorp S and M Beekman J M. A functional CFTR assay using primary cystic fibrosis intestinal organoids. Nat Med. 2013 July; 19(7):939-45.).
3. Enteroid Cell Harvesting and Seeding
Cells were recovered in cell recovery solution, collected by centrifugation at 650 rpm for 5 min at 4° C., resuspended in TrypLE and incubated for 5 min at 37° C. Cells were then collected by centrifugation at 650 rpm for 5 min at 4° C. and resuspended in IEMM containing 10 μM ROCK inhibitor (RI). The cell suspension was passed through a 40 μm cell strainer and resuspended at 1×10^6 cells/mL in IEMM containing 10 μM RI. Cells were seeded at 5000 cells/well into multi-well plates and incubated for overnight at 37° C., 95% humidity and 5% CO2 prior to assay.
4. Membrane Potential Dye, Enteroid Assay A
Enteroid cells were incubated with test compound in IEMM for 18-24 hours at 37° C., 95% humidity and 5% CO2. […] Briefly, cells were washed 5 times in Bath 1 Buffer. Bath 1 Dye Solution was added, and the cells were incubated for 25 min at room temperature. Following dye incubation, cells were washed 3 times in Chloride Free Dye Solution. Chloride transport was initiated by addition of Chloride Free Dye Stimulation Solution and the fluorescence signal was read for 15 min. […] Chloride transport was then expressed as a percentage of the chloride transport following treatment with 3 μM N-[(6-amino-2-pyridyl)sulfonyl]-6-(3-fluoro-5-isobutoxy-phenyl)-2-[(4S)-2,2,4-trimethylpyrrolidin-1-yl]pyridine-3-carboxamide, 3 μM (R)-1-(2,2-difluorobenzo[d][1,3]dioxol-5-yl)-N-(1-(2,3-dihydroxypropyl)-6-fluoro-2-(1-hydroxy-2-methylpropan-2-yl)-1H-indol-5-yl)cyclopropanecarboxamide and 300 nM acute N-[2,4-bis(1,1-dimethylethyl)-5-hydroxyphenyl]-1,4-dihydro-4-oxoquinoline-3-carboxamide triple combination control (% Activity).

CFTR [2] = biological target: T1, CFTR; assay: Membrane Potential Dye, Enteroid Assay B; assay type: cell-based; conditions: for EC50: read-out: Ent. B EC50
How it was run: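 Activity given as % of a triple-combination reference (1 μM and 3 μM correctors, 300 nM acute potentiator). Enteroids were preincubated 18-24 h with compound; chloride efflux then measured 15 min by methyl oxonol fluorescence after forskolin/IBMX/Compound III stimulation in chloride-free buffer containing CaCCinh-A01 and Chicago Sky Blue.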

T1 sequence (P13569 with tags, fused parts or gaps DEL508-508): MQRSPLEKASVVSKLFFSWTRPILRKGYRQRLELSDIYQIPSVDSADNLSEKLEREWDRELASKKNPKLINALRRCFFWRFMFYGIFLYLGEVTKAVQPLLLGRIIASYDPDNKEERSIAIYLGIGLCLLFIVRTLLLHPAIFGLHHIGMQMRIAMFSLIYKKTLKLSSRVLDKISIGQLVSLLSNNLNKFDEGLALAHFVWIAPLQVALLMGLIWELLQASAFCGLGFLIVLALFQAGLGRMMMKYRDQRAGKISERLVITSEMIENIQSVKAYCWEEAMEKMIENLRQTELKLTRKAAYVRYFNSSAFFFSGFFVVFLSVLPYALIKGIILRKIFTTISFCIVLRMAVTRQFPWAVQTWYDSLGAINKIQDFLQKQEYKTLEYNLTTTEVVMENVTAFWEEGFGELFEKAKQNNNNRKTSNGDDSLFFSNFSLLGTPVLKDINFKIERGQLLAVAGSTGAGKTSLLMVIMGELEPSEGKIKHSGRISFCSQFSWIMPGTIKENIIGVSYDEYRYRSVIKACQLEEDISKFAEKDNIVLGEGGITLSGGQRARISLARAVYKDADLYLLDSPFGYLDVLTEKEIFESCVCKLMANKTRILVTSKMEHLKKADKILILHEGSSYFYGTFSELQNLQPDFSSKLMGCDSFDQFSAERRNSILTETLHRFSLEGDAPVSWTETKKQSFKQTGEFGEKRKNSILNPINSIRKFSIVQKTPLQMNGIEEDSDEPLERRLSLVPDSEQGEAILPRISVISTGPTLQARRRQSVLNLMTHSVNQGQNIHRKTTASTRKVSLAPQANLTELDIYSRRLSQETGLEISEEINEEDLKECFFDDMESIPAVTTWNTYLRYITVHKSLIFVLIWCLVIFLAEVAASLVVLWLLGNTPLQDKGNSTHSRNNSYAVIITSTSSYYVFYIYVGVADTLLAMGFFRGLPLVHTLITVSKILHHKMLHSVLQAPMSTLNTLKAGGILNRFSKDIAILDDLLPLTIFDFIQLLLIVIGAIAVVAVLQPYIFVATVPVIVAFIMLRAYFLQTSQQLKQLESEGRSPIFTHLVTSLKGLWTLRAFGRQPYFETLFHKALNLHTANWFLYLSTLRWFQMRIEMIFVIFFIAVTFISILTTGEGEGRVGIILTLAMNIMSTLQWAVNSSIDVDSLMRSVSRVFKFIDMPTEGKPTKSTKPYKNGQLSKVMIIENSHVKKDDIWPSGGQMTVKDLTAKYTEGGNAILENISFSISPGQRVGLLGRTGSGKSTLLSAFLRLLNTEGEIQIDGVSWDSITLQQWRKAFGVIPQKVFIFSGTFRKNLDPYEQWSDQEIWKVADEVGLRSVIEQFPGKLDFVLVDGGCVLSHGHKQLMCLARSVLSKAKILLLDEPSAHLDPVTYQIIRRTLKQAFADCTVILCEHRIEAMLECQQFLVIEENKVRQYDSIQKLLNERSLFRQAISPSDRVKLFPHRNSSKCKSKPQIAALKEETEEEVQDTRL

Ent. A Max Activity (%) (CFTR [1]) | EC50 (CFTR [1]) [nM] | Ent. B Max Activity (%) (CFTR [2]) | EC50 (CFTR [2]) [nM] | Structure (SMILES)
+++ (+++ is >60%) | < 1000 | +++ (+++ is >60%) | < 1000 | Cc1cccc(C)c1-c1cc2nc(n1)NS(=O)(=O)c1cccc(n1)C(=O)N(C1CC3(CC3)C1)[C@H](CC(C)(C)C)CO2 [Compound 401]
+++ (+++ is >60%) | 3000 to 30000 | +++ (+++ is >60%) | < 1000 | Cc1cccc(C)c1-c1cc2nc(n1)NS(=O)(=O)c1cccc(c1)C(=O)N(C1CC3(CCNCC3)C1)[C@H](CC(C)C)CO2 [Compound 14, (11R)-12-(7-Azaspiro[3.5]nonan-2-yl)-6-(2,6-dimethylphenyl)-11-isobutyl-2,2-dioxo-9-oxa-2λ^6-thia-3,5,12,19-tetrazatricyclo[12.3.1.14,8]nonadeca-1(18),4(19),5,7,14,16-hexaen-13-one]
++ (++ is 30-60%) | < 1000 | + (+ is <300%) | < 1000 | Cc1cccc(C)c1-c1cc2nc(n1)NS(=O)(=O)c1cccc(c1)C(=O)N(C1CC3(CC3)C1)[C@@H](CC(C)C)CO2 [Compound 474, (11S)-6-(2,6-Dimethylphenyl)-11-isobutyl-2,2-dioxo-12-spiro[2.3]hexan-5-yl-9-oxa-2λ^6-thia-3,5,12,19-tetrazatricyclo[12.3.1.14,8]nonadeca-1(18),4(19),5,7,14,16-hexaen-13-one]
+++ (+++ is >60%) | < 1000 | +++ (+++ is >60%) | < 1000 | Cc1cccc(C)c1-c1cc2nc(n1)NS(=O)(=O)c1cccc(c1)C(=O)N([C@H]1CC3(C[C@H](N(C)C)C3)C1)[C@H](CC(C)C)CO2 (stereo partly shown) [Compound 313]
+++ (+++ is >60%) | < 1000 | +++ (+++ is >60%) | < 1000 | Cc1cccc(C)c1-c1cc2nc(n1)NS(=O)(=O)c1cccc(c1)C(=O)N([C@H]1C[C@@H](C#N)C1)[C@H](CC(C)C)CO2 (stereo in doubt) [Compound 469]
+++ (+++ is >60%) | < 1000 | ++ (++ is 30-60%) | < 1000 | Cc1cccc(C)c1-c1cc2nc(n1)NS(=O)(=O)c1cccc(c1)C(=O)N(C1CN(C(=O)OC(C)(C)C)C1)[C@H](CC(C)C)CO2 [Compound 334]
+++ (+++ is >60%) | < 1000 | +++ (+++ is >60%) | < 1000 | COCCN1CCC2(CC1)CC(N1C(=O)c3cccc(c3)S(=O)(=O)Nc3nc(cc(-c4c(C)cccc4C)n3)OC[C@H]1CC(C)C)C2 [Compound 22, (11R)-6-(2,6-dimethylphenyl)-11-isobutyl-12-[7-(2-methoxyethyl)-7-azaspiro[3.5]nonan-2-yl]-2,2-dioxo-9-oxa-2λ^6-thia-3,5,12,19-tetrazatricyclo[12.3.1.14,8]nonadeca-1(18),4(19),5,7,14,16-hexaen-13-one]
+++ (+++ is >60%) | < 1000 | +++ (+++ is >60%) | < 1000 | Cc1cccc(C)c1-c1cc2nc(n1)NS(=O)(=O)c1cccc(c1)C(=O)N(C1CC3(CCN(CCC(F)(F)F)CC3)C1)[C@H](CC(C)C)CO2 [Compound 20, (11R)-6-(2,6-Dimethylphenyl)-11-isobutyl-2,2-dioxo-12-[7-(3,3,3-trifluoropropyl)-7-azaspiro[3.5]nonan-2-yl]-9-oxa-2λ^6-thia-3,5,12,19-tetrazatricyclo[12.3.1.14,8]nonadeca-1(18),4(19),5,7,14,16-hexaen-13-one]
+++ (+++ is >60%) | < 1000 | +++ (+++ is >60%) | < 1000 | Cc1cccc(C)c1-c1cc2nc(n1)NS(=O)(=O)c1cccc(c1)C(=O)N(C1CC3(CCN(C)CC3)C1)[C@H](CC(C)C)CO2 [Compound 15, (11R)-6-(2,6-Dimethylphenyl)-11-isobutyl-12-(7-methyl-7-azaspiro[3.5]nonan-2-yl)-2,2-dioxo-9-oxa-2λ^6-thia-3,5,12,19-tetrazatricyclo[12.3.1.14,8]nonadeca-1(18),4(19),5,7,14,16-hexaen-13-one]
+++ (+++ is >60%) | < 1000 | +++ (+++ is >60%) | < 1000 | Cc1cccc(C)c1-c1cc2nc(n1)NS(=O)(=O)c1cccc(c1)C(=O)N(C1CN(C(C)C)C1)[C@H](CC(C)C)CO2 [Compound 319]
+++ (+++ is >60%) | < 1000 | +++ (+++ is >60%) | < 1000 | Cc1cccc(C)c1-c1cc2nc(n1)NS(=O)(=O)c1cccc(c1)C(=O)N([C@H]1CC3(C[C@@H](CO)C3)C1)[C@H](CC(C)C)CO2 (stereo partly shown) [Compound 337]
+++ (+++ is >60%) | < 1000 | +++ (+++ is >60%) | < 1000 | CCOC(=O)N1CCC2(CC1)CC(N1C(=O)c3cccc(c3)S(=O)(=O)Nc3nc(cc(-c4c(C)cccc4C)n3)OC[C@H]1CC(C)C)C2 [Compound 315]
+++ (+++ is >60%) | < 1000 | +++ (+++ is >60%) | < 1000 | COC(=O)N1CCCCC12CC(N1C(=O)c3cccc(c3)S(=O)(=O)Nc3nc(cc(-c4c(C)cccc4C)n3)OC[C@H]1CC(C)C)C2 (stereo partly shown) [Compound 323]
+++ (+++ is >60%) | < 1000 | +++ (+++ is >60%) | < 1000 | Cc1cccc(C)c1-c1cc2nc(n1)NS(=O)(=O)c1cccc(c1)C(=O)N(C1CN(C3CC4(CC4)C3)C1)[C@H](CC(C)C)CO2 [Compound 101, (11R)-6-(2,6-Dimethylphenyl)-11-isobutyl-2,2-dioxo-12-(1-spiro[2.3]hexan-5-ylazetidin-3-yl)-9-oxa-2λ^6-thia-3,5,12,19-tetrazatricyclo[12.3.1.14,8]nonadeca-1(18),4(19),5,7,14,16-hexaen-13-one]
+++ (+++ is >60%) | 3000 to 30000 | – | – | Cc1cccc(C)c1-c1cc2nc(n1)NS(=O)(=O)c1cccc(c1)C(=O)N(C1CCOCC1)CCO2 [Compound 439]

Structure (SMILES) | Ent. A Max Activity (%) (CFTR [1]) | EC50 (CFTR [1]) [nM] | Ent. B Max Activity (%) (CFTR [2]) | EC50 (CFTR [2]) [nM]
Cc1cccc(C)c1-c1cc2nc(n1)NS(=O)(=O)c1cccc(c1)C(=O)N(C1CC3(CCN(C(=O)OC(C)C)CC3)C1)[C@H](CC(C)C)CO2 [Compound 21, Isopropyl 2-[(11R)-6-(2,6-dimethylphenyl)-11-isobutyl-2,2,13-trioxo-9-oxa-2λ^6-thia-3,5,12,19-tetrazatricyclo[12.3.1.14,8]nonadeca-1(18),4(19),5,7,14,16-hexaen-12-yl]-7-azaspiro[3.5]nonane-7-carboxylate] | +++ (+++ is >60%) | < 1000 | +++ (+++ is >60%) | < 1000
COC(=O)N1CCC2(CC1)CC(N1C(=O)c3cccc(c3)S(=O)(=O)Nc3cc(cc(-c4c(C)cccc4C)n3)OC[C@H]1CC(C)C)C2 [Compound 196, Methyl 2-[(11R)-6-(2,6-dimethylphenyl)-11-isobutyl-2,2,13-trioxo-9-oxa-2λ^6-thia-3,5,12-triazatricyclo[12.3.1.14,8]nonadeca-1(18),4(19),5,7,14,16-hexaen-12-yl]-7-azaspiro[3.5]nonane-7-carboxylate] | +++ (+++ is >60%) | < 1000 | – | –

From patent publication US20230382925A1, “MODULATORS OF CYSTIC FIBROSIS TRANSMEMBRANE CONDUCTANCE REGULATOR” (VERTEX PHARMACEUTICALS INCORPORATED, priority 2020, published 2023)
